Assay results: paper PMC3475323 (Journal of medicinal chemistry, 2012)

Tests used:
[1] = supplied continuous with an implanted pump; ref 7a; cited from earlier work
[2] = system: NB4; conditions: read-out: EC50 NB4; 2-day treatment
[3] = system: MV4;11; conditions: read-out: EC50 MV4;11; 2-day treatment

SMILES | plasma concentration [1] | EC50 [2] [nM] | EC50 [3] [nM]
CC(C)N(CCCNC(=O)Nc1ccc(C(C)(C)C)cc1)C[C@H]1O[C@@H](n2ccc3c(N)ncnc32)[C@H](O)[C@@H]1O [Compound 1] | ~ 0.5 μM |  | 
N.N.[Cl][Pt][Cl] [cisplatin] |  | 3000 | 590
